In PMC6264390, “Design, Synthesis and Structure-activity Studies of Rhodanine Derivatives as HIV-1 Integrase Inhibitors” (Molecules, 2010):
Like-named read-outs stand apart in the source and are kept apart here.

What was measured:
[1] = system: IN; set-up: method as in PMID 15634005; details: cited from earlier work
[2] = target: T1, HIV-1 IN (Human immunodeficiency virus type 1 group M subtype B, UniProt P12497); experiment: In vitro IN inhibition assay (3’-processing and strand transfer); format: biochemical
T1 construct: pre-incubated with purified recombinant IN (at a final concentration of 200 nM); made in house
How it was run: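 Recombinant HIV-1 IN (200 nM) preincubated with compound 30 min at 30 °C in MnCl2-containing buffer (MgCl2 plus PEG for Mg2+ format), then 1 h with 20 nM 5'-32P-labeled 21-mer duplex. 3'-processing and strand-transfer products resolved on denaturing gels, phosphorimager-quantified; IC50 from log-concentration versus % inhibition.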

[3] = target: T2, human apurinic/apyrimidinic endonuclease 1 (APE1) (Homo sapiens, UniProt P27695); experiment: APE1 inhibition assay; format: biochemical; details: for IC50: read-out: Inhibition of APE1 catalytic activity IC50; for APE1 inhibition (in words): at 100 μM
T2 construct: His; made in house
T2 sequence (P27695 whole entry): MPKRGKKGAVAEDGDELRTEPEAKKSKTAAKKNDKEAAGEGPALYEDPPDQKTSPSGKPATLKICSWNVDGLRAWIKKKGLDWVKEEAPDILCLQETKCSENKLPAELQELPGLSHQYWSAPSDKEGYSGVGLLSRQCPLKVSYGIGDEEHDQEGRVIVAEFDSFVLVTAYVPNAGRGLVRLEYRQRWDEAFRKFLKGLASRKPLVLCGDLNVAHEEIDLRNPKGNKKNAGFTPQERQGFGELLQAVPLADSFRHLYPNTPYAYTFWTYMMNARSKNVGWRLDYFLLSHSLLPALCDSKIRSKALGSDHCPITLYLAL
How it was run: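 His-tagged APE1 (0.05 nM) preincubated with compound 10 min at 30 °C in MOPS pH 7.2 buffer with 7.5 mM MnCl2 and 10% DMSO, then 200 nM 5′-32P-labelled abasic (THF) duplex added for 10 min. Incision products resolved on denaturing gel, phosphorimaged; IC50 from %I versus log concentration.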

[4] = system: HIV-1; experiment: MT-4 cell infectivity assay; format: cell-based; details: MT-4 cells
[5] = Mn2+ cofactor (7.5 mM MnCl2), read-out: Inhibition of IN catalytic activity IC50, 3’-Processing
[6] = Mn2+ cofactor (7.5 mM MnCl2), read-out: Inhibition of IN catalytic activity IC50, Strand Transfer

In the case of O=C(O)c1ccc(N2C(=O)/C(=C/c3ccccc3)SC2=S)cc1 [Compound 1], the IC50 ([1]; read-out: IC50, 3’-processing) is given as 15 µM and the IC50 ([1]; read-out: IC50, strand transfer) is given as 11 µM.

For CCOc1cccc(C=C2SC(=S)N(NC(=S)C(=O)Nc3ccc(O)cc3)C2=O)c1O [Compound 45, 2-{[5-(3-Ethoxy-2-hydroxybenzylidene)-4-oxo-2-thioxo-1,3-thiazolidin-3-yl]amino}-N-(4-hydroxyphenyl)-2-thioxoacetamide], the IC50 [2, 5] was over 100 µM, the IC50 [2, 6] was over 100 µM and the IC50 [3] was over 100 µM. It also gave a melting point of 184 to 185 °C.

Work on C=CCc1cccc(C=C2SC(=S)N(NC(=S)C(=O)Nc3ccc(O)cc3)C2=O)c1O [Compound 46, 2-{[5-(3-Allyl-2-hydroxybenzylidene)-4-oxo-2-thioxo-1,3-thiazolidin-3-yl]amino}-N-(4-hydroxy-phenyl)-2-thioxoacetamide] yielded an IC50 [2, 5] of over 100 µM, an IC50 [2, 6] of 100 µM and an IC50 [3] of over 100 µM. It also gave a melting point of 153 to 154 °C.

Work on CCN(CC)c1ccc(C=C2SC(=S)N(NC(=S)C(=O)Nc3ccc(O)cc3)C2=O)c(O)c1 [Compound 47, 2-({5-[4-(Diethylamino)-2-hydroxybenzylidene]-4-oxo-2-thioxo-1,3-thiazolidin-3-yl}amino)-N-(4-hydroxyphenyl)-2-thioxoacetamide] yielded an IC50 [2, 5] of over 100 µM, an IC50 [2, 6] of over 100 µM and an IC50 [3] of over 100 µM. The melting point was 206 to 207 °C.

In the case of O=C(Nc1ccc(O)cc1)C(=S)NN1C(=O)C(=Cc2cc(N=Nc3ccccc3)ccc2O)SC1=S [Compound 48, N-(4-hydroxyphenyl)-2-[(5-{2-hydroxy-5-[(E)-phenyldiazenyl]benzylidene}-4-oxo-2-thioxo-1,3-thiaz-olidin-3-yl)amino]-2-thioxoacetamide], the IC50 [2, 5] is reported as 17 ± 7 µM, the IC50 [2, 6] is reported as 8 ± 2 µM and the “APE1 inhibition (in words)” value [3] is reported as “did not show any significant APE1 inhibition”. The IC50 [3] was over 100 µM, the “antiviral activity against HIV-1” value [4] was “did not show any significant antiviral activity” and the melting point was 145 to 146 °C.

With O=C(Nc1ccc(O)cc1)C(=S)NN1C(=O)C(=Cc2ccc(O)c(C(=O)O)c2)SC1=S [Compound 49, 2-Hydroxy-5-{[3-({2-[(4-hydroxyphenyl)amino]-2-oxoethanethioyl}amino)-4-oxo-2-thioxo-1,3-thiazolidin-5-ylidene]methyl}benzoic acid] the IC50 [2, 5] was 80 µM, the IC50 [2, 6] was 45 µM and the IC50 [3] was over 100 µM. It also gave a melting point of 223 to 224 °C.

Work on O=C(Nc1ccc(O)cc1)C(=S)NN1C(=O)C(=Cc2cc(Cl)cc(Cl)c2O)SC1=S [Compound 50, 2-{[5-(3,5-Dichloro-2-hydroxybenzylidene)-4-oxo-2-thioxo-1,3-thiazolidin-3-yl]amino}-N-(4-hydroxy-phenyl)-2-thioxoacetamide] yielded an IC50 [2, 5] of 60 µM, an IC50 [2, 6] of 55 µM and an IC50 [3] of over 100 µM. For the same compound, the melting point was 217 to 218 °C.

In the case of O=C(Nc1ccc(O)cc1)C(=S)NN1C(=O)C(=Cc2cc(Br)cc(Br)c2O)SC1=S [Compound 51, 2-{[5-(3,5-Dibromo-2-hydroxybenzylidene)-4-oxo-2-thioxo-1,3-thiazolidin-3-yl]amino}-N-(4-hydroxy-phenyl)-2-thioxoacetamide], the IC50 [2, 5] is reported as 28 ± 1 µM, the IC50 [2, 6] is reported as 21 ± 7 µM and the “APE1 inhibition (in words)” value [3] is reported as “did not show any significant APE1 inhibition”. For the same compound, the IC50 [3] was over 100 µM, the “antiviral activity against HIV-1” value [4] was “did not show any significant antiviral activity” and the melting point was 189 to 190 °C.

In the case of COc1cc(Br)cc(C=C2SC(=S)N(NC(=S)C(=O)Nc3ccc(O)cc3)C2=O)c1O [Compound 52, 2-{[5-(5-Bromo-2-hydroxy-3-methoxybenzylidene)-4-oxo-2-thioxo-1,3-thiazolidin-3-yl]amino}-N-(4-hydroxyphenyl)-2-thioxoacetamide], the IC50 [2, 5] is reported as 38 ± 27 µM, the IC50 [2, 6] is reported as 23 ± 9 µM and the IC50 [3] is reported as over 100 µM. It also gave a melting point of 176 to 177 °C.

With O=C(Nc1ccc(O)cc1)C(=S)NN1C(=O)C(=Cc2cc(I)cc(I)c2O)SC1=S [Compound 53, 2-{[5-(2-Hydroxy-3,5-diiodobenzylidene)-4-oxo-2-thioxo-1,3-thiazolidin-3-yl]amino}-N-(4-hydroxy-phenyl)-2-thioxoacetamide] the “selectivity for IN than APE1” value ([2]; IN versus APE1) was 20 fold, the IC50 [2, 5] was 7 ± 3 µM and the IC50 [2, 6] was 3 ± 2 µM. The IC50 ([2]; in the presence of Mg^2+ as the cofactor, read-out: Inhibition of IN catalytic activity IC50, 3’-Processing, Mg2+ (converted)) was 12.5 µM, the IC50 ([2]; in the presence of Mg^2+ as the cofactor, read-out: Inhibition of IN catalytic activity IC50, Strand Transfer, Mg2+ (converted)) was 11 µM and the IC50 [3] was 62 ± 3 µM. The “antiviral activity against HIV-1” value [4] was “did not show any significant antiviral activity” and the melting point was 157 to 158 °C.
